Legend:
EGFR vIII Ba/F3 = test: CellTiter-Glo cell viability, EGFR vIII Ba/F3; format: cell-based; details: Mus musculus, BaF3, 72 h, read-out: EGFR vIII Ba/F3 CTG IC50 /
Description: (§1) The CellTiter-Glo Luminescent Cell Viability Assay (Promega) is a homogeneous method of determining the number of viable cells in culture. It is based on quantification of ATP, indicating the presence of metabolically active cells. Cells are seeded on day 1 at cell numbers that assure assay linearity and optimal signal intensity. After incubation for 24h in humidified chambers at 37°C and 5% CO2, compounds in DMSO are added at different concentrations. Cells are further incubated for 72 h at 37°C and 5% CO2. Cells treated with the compound vehicle DMSO are used as positive controls and cells treated with 10 µM Staurosporine serve as negative controls. At day 5 the CellTiter Glo Reagent is prepared according to the instructions of the kit (Promega Inc.): Reagent is mixed 1:1 with cell culture medium. Thereon, mixture and assay plates are equilibrated at room temperature for 20 min. Equal volumes of the reagent-medium-mixture is added to the volume of culture medium present in each well. The plates are mixed at ∼200 rpm for 2 minutes on an orbital shaker. The microplates are then incubated at room temperature for 10 minutes for stabilization of the luminescent signal. Following incubation the luminescence is recorded on a Victor microplate reader (Perkin Elmer) using a 200 ms integration time. The data is then analyzed with Excel using the XLFIT Plugin (dose response Fit 205) for IC50-determination. As quality control the Z'-factor is calculated from 16 positive and negative control values. Only assay results showing a Z'-factor ≥ 0.5 are used for further analysis.

HER2 INS YVMA = molecular target: T1, HER2 INS YVMA (Homo sapiens, UniProt P04626, INS775YVMA); test: Lance Kinase Activity Assay, Her2 Exon 20 InsYVMA; details: biochemical Lance assay
T1 construct: purchased DPF
Description: This protocol describes how the Lance Kinase Activity Assay was performed to determine IC50 values of compounds of general formula (I) against HER2 INS YVMA. The principle behind this enzymatic assay is based upon the phosphorylation of the Ulight-peptide substrate. It is detected by using a specific EU-labeled anti-phospho peptide antibody. The binding of the Eu labeled anti-phospho peptide antibody to the phosphorylated ULight labeled peptide gives rise to a FRET-signal. Binding of an inhibitor to the kinase prevents phosphorylation of the Ulight-substrate, resulting in a loss of FRET. In table 2 is summarized the relevant information for the LANCE assay. Table 2: Reagents, stock concentrations and final assay concentrations for Her2 INS YVMA.
The compounds of general formula (I) summarized in Table 3 were serial diluted from a 10 mM DMSO stock solution 1:3 over 8 steps in a total volume of 20 µl. For every sample, 8 µl of kinase-substrate mix was transferred into a suitable assay plate (e.g. Corning #3673). Compound was added via pintool transfer (10nl/well) using a Biomek FX robot (BeckmanCoulter). Reaction was started by addition of 2µl ATP working solution and mixed using variomag teleshaker (Thermo Fischer Scientific). After 1 h incubation at room temperature the reaction was stopped with 10µl detection mix containing the Eu-labeled phosphospecific antibody and 10mM EDTA. After a second incubation period of 1 h at room temperature the FRET signal was measured at 340 nm excitation, 665 nm and 615 nm emission (for the ULight-substrate and Eu-AB, respectively) with an Envision spectrophotometer (Perkin Elmer, Waltham, MA, USA) with 50 µs delay and 300 µs integration time. IC50 values were determined from the sigmoidal dose response curves with the software Quattro Workflow (Quattro GmbH, Munich, Germany).

[1] = test system: Her2 Exon 20 InsYVMA Ba/F3; test: CellTiter-Glo cell viability, Her2 Exon 20 InsYVMA Ba/F3; format: cell-based; details: Mus musculus, BaF3, 72 h, read-out: Her2 Exon 20 InsYVMA Ba/F3 CTG IC50
Description: as §1

EGFR (del746-750) = EGFR (del746-750) (Homo sapiens, UniProt P00533, DEL746-750); test: Lance assay, EGFR (del746-750); details: biochemical Lance assay
EGFR L858R = EGFR L858R (Homo sapiens, UniProt P00533, L858R); test: Lance assay, EGFR L858R; details: biochemical Lance assay
A431 = test: CellTiter-Glo cell viability, A431; format: cell-based; details: Homo sapiens, A-431, 72 h, read-out: A431 CTG IC50
Description: as §1

[2] = test system: EGFR Exon 20 InsNPH Ba/F3; test: CellTiter-Glo cell viability, EGFR Exon 20 InsNPH Ba/F3; format: cell-based; details: Mus musculus, BaF3, 72 h, read-out: EGFR Exon 20 InsNPH Ba/F3 CTG IC50
Description: as §1

EGFR T790M L858R = EGFR T790M L858R (Homo sapiens, UniProt P00533, L858R/T790M); test: Lance assay, EGFR T790M L858R; details: biochemical Lance assay
EGFR wt = EGFR wt (Homo sapiens, UniProt P00533); test: Lance assay, EGFR wt; details: biochemical Lance assay
EGFR L858R T790M Ba/F3 = test: CellTiter-Glo cell viability, EGFR L858R T790M Ba/F3; format: cell-based; details: Mus musculus, BaF3, 72 h, read-out: EGFR L858R T790M Ba/F3 CTG IC50 /
Description: as §1

EGFR L858R Ba/F3 = test: CellTiter-Glo cell viability, EGFR L858R Ba/F3; format: cell-based; details: Mus musculus, BaF3, 72 h, read-out: EGFR L858R Ba/F3 CTG IC50 /
Description: as §1

T1 sequence (P04626 with tags, fused parts or gaps INS775YVMA): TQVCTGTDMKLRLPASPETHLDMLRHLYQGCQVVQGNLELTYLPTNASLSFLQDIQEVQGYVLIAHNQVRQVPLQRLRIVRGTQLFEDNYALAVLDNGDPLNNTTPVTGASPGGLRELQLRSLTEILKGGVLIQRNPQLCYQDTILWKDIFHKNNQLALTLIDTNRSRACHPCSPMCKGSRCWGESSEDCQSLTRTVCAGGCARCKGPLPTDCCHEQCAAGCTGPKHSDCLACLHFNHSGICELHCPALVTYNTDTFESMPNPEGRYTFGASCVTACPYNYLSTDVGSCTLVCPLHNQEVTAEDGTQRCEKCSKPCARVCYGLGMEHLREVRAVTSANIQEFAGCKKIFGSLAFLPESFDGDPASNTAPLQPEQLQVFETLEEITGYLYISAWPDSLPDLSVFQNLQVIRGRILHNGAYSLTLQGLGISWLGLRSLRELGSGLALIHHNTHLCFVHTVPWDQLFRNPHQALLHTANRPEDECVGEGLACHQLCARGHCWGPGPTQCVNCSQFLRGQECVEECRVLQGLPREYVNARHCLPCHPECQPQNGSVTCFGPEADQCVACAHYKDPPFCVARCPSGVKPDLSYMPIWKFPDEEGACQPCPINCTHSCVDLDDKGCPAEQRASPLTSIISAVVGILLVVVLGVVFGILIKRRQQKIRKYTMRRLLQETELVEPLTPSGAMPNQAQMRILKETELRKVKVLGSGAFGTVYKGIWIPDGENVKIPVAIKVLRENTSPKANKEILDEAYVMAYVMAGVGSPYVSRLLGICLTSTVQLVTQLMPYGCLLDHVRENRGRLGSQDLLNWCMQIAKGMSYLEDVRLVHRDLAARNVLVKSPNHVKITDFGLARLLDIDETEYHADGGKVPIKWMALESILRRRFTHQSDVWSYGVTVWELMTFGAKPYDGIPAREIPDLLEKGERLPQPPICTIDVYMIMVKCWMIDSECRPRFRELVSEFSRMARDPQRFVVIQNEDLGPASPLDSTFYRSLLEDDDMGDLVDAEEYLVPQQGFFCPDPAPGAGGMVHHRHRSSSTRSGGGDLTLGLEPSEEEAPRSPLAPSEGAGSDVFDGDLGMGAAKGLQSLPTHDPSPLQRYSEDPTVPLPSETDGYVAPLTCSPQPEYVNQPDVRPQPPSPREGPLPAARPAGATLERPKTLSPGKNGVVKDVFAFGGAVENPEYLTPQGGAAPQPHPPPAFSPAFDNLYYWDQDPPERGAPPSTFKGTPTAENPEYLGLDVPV
Chain of EGFR L858R (P00533 25-1210 L858R): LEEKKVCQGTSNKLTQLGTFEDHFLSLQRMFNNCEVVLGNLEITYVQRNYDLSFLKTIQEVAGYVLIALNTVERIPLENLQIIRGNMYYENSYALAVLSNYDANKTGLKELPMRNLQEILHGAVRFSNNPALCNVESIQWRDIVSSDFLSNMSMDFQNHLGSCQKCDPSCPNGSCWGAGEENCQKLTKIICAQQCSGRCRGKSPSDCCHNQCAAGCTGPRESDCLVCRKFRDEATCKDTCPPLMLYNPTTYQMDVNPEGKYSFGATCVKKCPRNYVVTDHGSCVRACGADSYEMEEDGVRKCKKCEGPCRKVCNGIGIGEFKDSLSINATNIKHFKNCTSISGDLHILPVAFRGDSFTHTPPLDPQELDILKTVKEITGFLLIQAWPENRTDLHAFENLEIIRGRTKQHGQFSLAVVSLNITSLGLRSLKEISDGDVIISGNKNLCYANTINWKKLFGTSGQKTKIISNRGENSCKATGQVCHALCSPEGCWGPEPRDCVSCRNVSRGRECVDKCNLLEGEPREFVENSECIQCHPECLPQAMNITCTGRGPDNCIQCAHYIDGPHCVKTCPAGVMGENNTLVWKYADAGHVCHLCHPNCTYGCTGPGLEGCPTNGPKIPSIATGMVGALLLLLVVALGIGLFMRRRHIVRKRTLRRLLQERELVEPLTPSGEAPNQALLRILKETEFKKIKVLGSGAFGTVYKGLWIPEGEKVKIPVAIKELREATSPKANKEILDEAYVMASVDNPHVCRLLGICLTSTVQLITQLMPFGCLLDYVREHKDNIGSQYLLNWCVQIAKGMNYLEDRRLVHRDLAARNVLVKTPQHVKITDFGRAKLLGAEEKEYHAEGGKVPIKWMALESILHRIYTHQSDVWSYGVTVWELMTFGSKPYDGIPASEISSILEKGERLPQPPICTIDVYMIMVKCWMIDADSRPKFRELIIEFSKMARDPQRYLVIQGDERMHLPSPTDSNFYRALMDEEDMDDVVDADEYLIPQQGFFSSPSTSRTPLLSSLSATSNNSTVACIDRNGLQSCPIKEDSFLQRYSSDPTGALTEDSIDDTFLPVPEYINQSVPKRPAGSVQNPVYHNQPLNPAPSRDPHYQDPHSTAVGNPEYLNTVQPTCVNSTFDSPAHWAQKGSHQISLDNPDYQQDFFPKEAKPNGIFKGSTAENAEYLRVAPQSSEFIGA
Chain of EGFR (del746-750) (P00533 with tags, fused parts or gaps DEL746-750): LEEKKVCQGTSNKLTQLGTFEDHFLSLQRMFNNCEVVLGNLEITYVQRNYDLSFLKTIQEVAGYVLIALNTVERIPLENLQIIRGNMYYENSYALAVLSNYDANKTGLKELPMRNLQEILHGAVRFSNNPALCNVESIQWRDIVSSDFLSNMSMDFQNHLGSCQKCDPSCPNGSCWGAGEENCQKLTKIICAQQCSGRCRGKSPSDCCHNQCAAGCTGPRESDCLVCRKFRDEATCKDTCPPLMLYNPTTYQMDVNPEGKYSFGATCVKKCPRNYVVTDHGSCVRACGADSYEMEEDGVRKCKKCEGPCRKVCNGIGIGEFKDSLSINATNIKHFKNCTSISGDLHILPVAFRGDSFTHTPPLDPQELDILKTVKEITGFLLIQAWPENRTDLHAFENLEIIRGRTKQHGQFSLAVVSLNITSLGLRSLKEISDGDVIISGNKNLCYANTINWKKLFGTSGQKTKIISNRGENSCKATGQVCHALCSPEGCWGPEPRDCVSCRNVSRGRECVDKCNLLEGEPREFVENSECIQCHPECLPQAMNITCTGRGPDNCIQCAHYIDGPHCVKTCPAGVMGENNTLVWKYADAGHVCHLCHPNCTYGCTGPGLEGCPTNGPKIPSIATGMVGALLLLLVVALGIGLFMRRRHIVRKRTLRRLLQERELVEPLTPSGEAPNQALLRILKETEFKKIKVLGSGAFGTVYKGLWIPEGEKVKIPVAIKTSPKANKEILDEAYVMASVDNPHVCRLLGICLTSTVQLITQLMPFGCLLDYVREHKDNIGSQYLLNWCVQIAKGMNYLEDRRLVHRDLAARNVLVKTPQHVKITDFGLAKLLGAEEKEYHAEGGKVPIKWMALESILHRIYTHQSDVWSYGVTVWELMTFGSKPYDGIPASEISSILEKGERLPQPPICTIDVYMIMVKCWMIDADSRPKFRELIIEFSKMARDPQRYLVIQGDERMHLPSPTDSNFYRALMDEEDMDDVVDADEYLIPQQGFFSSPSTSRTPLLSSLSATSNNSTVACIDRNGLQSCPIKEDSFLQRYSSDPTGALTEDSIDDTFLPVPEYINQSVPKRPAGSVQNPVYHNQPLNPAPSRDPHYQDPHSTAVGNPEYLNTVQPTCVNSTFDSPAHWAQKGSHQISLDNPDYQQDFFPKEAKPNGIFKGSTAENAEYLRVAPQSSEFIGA
Chain of EGFR T790M L858R (P00533 25-1210 T790M/L858R): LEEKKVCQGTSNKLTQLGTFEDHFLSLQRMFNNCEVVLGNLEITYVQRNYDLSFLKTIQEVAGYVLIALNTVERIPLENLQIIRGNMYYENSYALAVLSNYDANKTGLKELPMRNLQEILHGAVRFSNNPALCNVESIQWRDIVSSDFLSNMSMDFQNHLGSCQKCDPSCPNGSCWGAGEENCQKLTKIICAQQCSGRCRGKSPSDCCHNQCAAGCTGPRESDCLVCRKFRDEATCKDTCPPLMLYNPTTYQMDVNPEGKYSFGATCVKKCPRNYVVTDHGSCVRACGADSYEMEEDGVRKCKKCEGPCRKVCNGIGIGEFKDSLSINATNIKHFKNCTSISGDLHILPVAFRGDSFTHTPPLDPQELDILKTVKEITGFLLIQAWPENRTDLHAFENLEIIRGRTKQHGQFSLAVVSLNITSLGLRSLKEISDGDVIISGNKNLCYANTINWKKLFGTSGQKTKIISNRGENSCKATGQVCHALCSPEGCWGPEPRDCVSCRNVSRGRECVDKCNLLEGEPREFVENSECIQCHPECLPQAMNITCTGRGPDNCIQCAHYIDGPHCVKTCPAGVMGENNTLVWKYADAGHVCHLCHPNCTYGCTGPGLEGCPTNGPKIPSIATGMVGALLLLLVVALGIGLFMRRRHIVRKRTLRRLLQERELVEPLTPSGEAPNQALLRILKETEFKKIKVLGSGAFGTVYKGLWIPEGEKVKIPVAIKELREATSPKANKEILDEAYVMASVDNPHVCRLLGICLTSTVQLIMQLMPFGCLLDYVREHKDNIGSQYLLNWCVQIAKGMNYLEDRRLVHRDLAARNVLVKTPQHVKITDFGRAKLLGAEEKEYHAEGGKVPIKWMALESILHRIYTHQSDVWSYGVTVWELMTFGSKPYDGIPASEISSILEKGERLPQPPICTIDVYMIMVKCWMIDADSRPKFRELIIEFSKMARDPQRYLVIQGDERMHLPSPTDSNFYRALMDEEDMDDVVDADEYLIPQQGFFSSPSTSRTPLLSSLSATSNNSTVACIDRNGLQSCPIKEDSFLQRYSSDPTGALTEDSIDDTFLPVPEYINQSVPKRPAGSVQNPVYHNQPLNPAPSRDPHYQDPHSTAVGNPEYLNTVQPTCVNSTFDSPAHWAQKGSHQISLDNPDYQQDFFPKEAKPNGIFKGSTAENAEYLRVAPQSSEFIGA

| SMILES | IC50 (EGFR vIII Ba/F3) [µM] | IC50 (HER2 INS YVMA) [µM] | IC50 [1] [µM] | IC50 (EGFR (del746-750)) [µM] | IC50 (EGFR L858R) [µM] | IC50 (A431) [µM] | IC50 [2] [µM] | IC50 (EGFR T790M L858R) [µM] | IC50 (EGFR wt) [µM] | IC50 (EGFR L858R T790M Ba/F3) [µM] | IC50 (EGFR L858R Ba/F3) [µM] |
| --- | --- | --- | --- | --- | --- | --- | --- | --- | --- | --- | --- |
| C=CC(=O)Nc1cc(-c2c(-c3cnn(C)c3)[nH]c3ncc(-c4cnn(CCN(C)C)c4)cc23)ccc1C [Example 34, N-(5-(5-(1-(2-(dimethylamino)ethyl)-1H-pyrazol-4-yl)-2-(1-methyl-1H-pyrazol-4-yl)-1H-pyrrolo[2,3-b]pyridin-3-yl)-2-methylphenyl)acrylamide] | 1 to 10 | 0.5 to 1 | > 10 | ≤ 0.05 | ≤ 0.05 | 1 to 10 | 1 to 10 | 0.1 to 0.5 | ≤ 0.05 | 1 to 10 | > 10 |
| C=CC(=O)Nc1cc(-c2c(-c3cn(C)cn3)[nH]c3ncc(C(=O)OC(C)C)c(C)c23)ccc1C [Example 25, isopropyl 3-(3-acrylamido-4-methylphenyl)-4-methyl-2-(1-methyl-1 H-imidazol-4-yl)-1H-pyrrolo[2,3-b]pyridine-5-carboxylate] | 0.05 to 0.1 | 0.1 to 0.5 | 0.1 to 0.5 | ≤ 0.05 | ≤ 0.05 | 1 to 10 | 0.1 to 0.5 | 0.05 to 0.1 | ≤ 0.05 | 0.05 to 0.1 | ≤ 0.05 |
| C=CC(=O)Nc1cc(-c2c(-c3cnn(C)c3)[nH]c3ncc(-c4cnn(CC(C)C)c4)cc23)ccc1C [Example 32, N-(5-(5-(1-isobutyl-1H-pyrazol-4-yl)-2-(1-methyl-1H-pyrazol-4-yl)-1H-pyrrolo[2,3-b]pyridin-3-yl)-2-methylphenyl)acrylamide] | ≤ 0.05 | 0.1 to 0.5 | 0.1 to 0.5 | ≤ 0.05 | ≤ 0.05 | 1 to 10 | 0.05 to 0.1 | 0.1 to 0.5 | ≤ 0.05 | 0.1 to 0.5 | ≤ 0.05 |
| C=CC(=O)Nc1cc(-c2c(-c3cnn(C)c3)[nH]c3ncc(-c4cnn(CCOC)c4)cc23)ccc1C [Example 33, N-(5-(5-(1-(2-methoxyethyl)-1 H-pyrazol-4-yl)-2-(1-methyl-1 H-pyrazol-4-yl)-1H-pyrrolo[2,3-b]pyridin-3-yl)-2-methylphenyl)acrylamide] | ≤ 0.05 | 0.05 to 0.1 | 0.5 to 1 | ≤ 0.05 | ≤ 0.05 | 1 to 10 | 0.1 to 0.5 | ≤ 0.05 | ≤ 0.05 | 0.1 to 0.5 | ≤ 0.05 |
| C=CC(=O)Nc1cc(-c2c(-c3cnn(C)c3)[nH]c3ncc(-c4cn(C)nc4C)cc23)ccc1C [Example 30, N-(5-(5-(1,3-dimethyl-1H-pyrazol-4-yl)-2-(1-methyl-1 H-pyrazol-4-yl)-1 H-pyrrolo[2,3-b]pyridin-3-yl)-2-methylphenyl)acrylamide] | 0.1 to 0.5 | 0.1 to 0.5 | 0.5 to 1 | ≤ 0.05 | ≤ 0.05 | 1 to 10 | 0.1 to 0.5 | ≤ 0.05 | ≤ 0.05 | 0.1 to 0.5 | ≤ 0.05 |
| C=CC(=O)Nc1cc(-c2c(-c3cnn(CC(C)O)c3)[nH]c3ncc(C(=O)OC(C)C)c(C)c23)ccc1C (stereo not drawn) [Example 24, isopropyl 3-(3-acrylamido-4-methylphenyl)-2-(1-(2-hydroxypropyl)-1H-pyrazol-4-yl)-4-methyl-1 H-pyrrolo[2,3-b]pyridine-5-carboxylate] | 0.05 to 0.1 | 0.1 to 0.5 | 0.5 to 1 | ≤ 0.05 | ≤ 0.05 | 1 to 10 | 0.1 to 0.5 | 0.05 to 0.1 | ≤ 0.05 | 0.05 to 0.1 | ≤ 0.05 |
| C=CC(=O)Nc1cc(-c2c(-c3cnn(C)c3)[nH]c3ncc(-c4cnn(C5COC5)c4)cc23)ccc1C [Example 35, N-(2-methyl-5-(2-(1-methyl-1H-pyrazol-4-yl)-5-(1-(oxetan-3-yl)-1 H-pyrazol-4-yl)-1H-pyrrolo[2,3-b]pyridin-3-yl)phenyl)acrylamide] | 0.1 to 0.5 | 0.1 to 0.5 | 1 to 10 | ≤ 0.05 | ≤ 0.05 | 1 to 10 | 0.5 to 1 | ≤ 0.05 | ≤ 0.05 | 0.1 to 0.5 | ≤ 0.05 |
| C=CC(=O)Nc1cc(-c2c(-c3cnn(C)c3)[nH]c3ncc(-c4cnn(C)c4C)cc23)ccc1C [Example 29, N-(5-(5-(1,5-dimethyl-1H-pyrazol-4-yl)-2-(1-methyl-1 H-pyrazol-4-yl)-1 H-pyrrolo[2,3-b]pyridin-3-yl)-2-methylphenyl)acrylamide] | ≤ 0.05 | ≤ 0.05 | 0.1 to 0.5 | ≤ 0.05 | ≤ 0.05 | 0.5 to 1 | ≤ 0.05 | ≤ 0.05 | ≤ 0.05 | ≤ 0.05 | ≤ 0.05 |
| C=CC(=O)Nc1cc(-c2c(-c3cnn(C)c3)[nH]c3ncc(-c4ccnn4C)cc23)ccc1C [Example 27, N-(2-methyl-5-(2-(1-methyl-1H-pyrazol-4-yl)-5-(-methyl-1 H-pyrazol-5-yl)-1 H-pyrrolo[2,3-b]pyridin-3-yl)phenyl)acrylamide] | ≤ 0.05 | 0.1 to 0.5 | 0.5 to 1 | ≤ 0.05 | ≤ 0.05 | 1 to 10 | 0.1 to 0.5 | ≤ 0.05 | ≤ 0.05 | 0.1 to 0.5 | ≤ 0.05 |
